Results: PubChem BioAssay AID330 (DTP/NCI, 2004)
Where “and” joins values, the source holds several entries; their conditions need not be identical. Identical values can stand only once. Toxic doses and inconclusive results are not listed.

Test system: P388 leukemia ip, CD2F1 mice, survival T/C
Experiment: NCI In Vivo Anticancer Drug Screen. Data for tumor model P388 Leukemia (intraperitoneal) in CD2F1 (CDF1) mice
Conditions: endpoint: median survival time, higher = longer survival
Procedure, shortened: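 Mice carrying the transplanted tumor received test compound or vehicle. Survival was recorded in each group, and the value is the treated-group measurement divided by that of the vehicle-treated control group.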

[1] = dose: 50.0 mg/kg/injection, schedule: Q01DX009 (ip), vehicle: saline
[2] = dose: 100.0 mg/kg/injection, schedule: Q01DX001 (ip), vehicle: Klucel (hydroxypropylcellulose) (HPC)
[3] = dose: 200.0 mg/kg/injection, schedule: Q01DX001 (ip), vehicle: Klucel (hydroxypropylcellulose) (HPC)
[4] = dose: 400.0 mg/kg/injection, schedule: Q01DX001 (ip), vehicle: Klucel (hydroxypropylcellulose) (HPC)
[5] = dose: 50.0 mg/kg/injection, schedule: Q01DX009 (ip), vehicle: Klucel (hydroxypropylcellulose) (HPC)
[6] = dose: 100.0 mg/kg/injection, schedule: Q01DX009 (ip), vehicle: Klucel (hydroxypropylcellulose) (HPC)

COC1C(O)CC(OC2CC(Oc3cc4cc5c(c(O)c4c(O)c3C)C(=O)[C@@H](OC3CC(OC4CC(OC6CC(C)(O)C(OC(C)=O)C(C)O6)C(O)C(C)O4)C(O)C(C)O3)[C@H]([C@H](OC)C(=O)[C@@H](O)[C@@H](C)O)C5)OC(C)C2OC(C)=O)OC1C (some centres undefined)
T/C (dose: 0.02 mg/kg/injection, schedule: Q01DX001 (ip), vehicle: other): 114 % of control | T/C (dose: 0.02 mg/kg/injection, schedule: Q01DX009 (ip), vehicle: saline sonified): 150 % of control | T/C (dose: 0.03 mg/kg/injection, schedule: Q01DX005 (ip), vehicle: saline): 150 % of control | T/C (dose: 0.03 mg/kg/injection, schedule: Q01DX005 (iv), vehicle: saline): 95 % of control | T/C (dose: 0.03 mg/kg/injection, schedule: Q01DX009 (ip), vehicle: saline): 154 % of control | T/C (dose: 0.04 mg/kg/injection, schedule: Q01DX009 (ip), vehicle: saline sonified): 165 % of control | T/C (dose: 0.05 mg/kg/injection, schedule: Q01DX005 (ip), vehicle: saline): 155 % of control | T/C (dose: 0.06 mg/kg/injection, schedule: Q01DX005 (ip), vehicle: saline): 175 % of control | T/C (dose: 0.08 mg/kg/injection, schedule: Q01DX009 (ip), vehicle: saline sonified): 180 % of control | T/C (dose: 0.1 mg/kg/injection, schedule: Q01DX005 (ip), vehicle: saline): 155 % of control | T/C (dose: 0.1 mg/kg/injection, schedule: Q01DX005 (iv), vehicle: saline): 98 % of control | T/C (dose: 0.12 mg/kg/injection, schedule: Q01DX005 (ip), vehicle: saline): 190 % of control | T/C (dose: 0.12 mg/kg/injection, schedule: Q04DX003 (ip), vehicle: saline): 154 % of control | T/C (dose: 0.15 mg/kg/injection, schedule: Q01DX009 (ip), vehicle: saline sonified): 180 % of control | T/C (dose: 0.2 mg/kg/injection, schedule: Q01DX005 (ip), vehicle: saline): 158 % of control | T/C (dose: 0.2 mg/kg/injection, schedule: Q01DX005 (iv), vehicle: saline): 100 % of control | T/C (dose: 0.25 mg/kg/injection, schedule: Q01DX005 (ip), vehicle: saline): 220 % of control | T/C (dose: 0.25 mg/kg/injection, schedule: Q04DX003 (ip), vehicle: saline): 175 % of control | T/C (dose: 0.3 mg/kg/injection, schedule: Q01DX009 (ip), vehicle: saline sonified): 180 % of control | T/C (dose: 0.3 mg/kg/injection, schedule: Q04DX003 (ip), vehicle: saline sonified): 181 % of control | T/C (dose: 0.4 mg/kg/injection, schedule: Q01DX005 (ip), vehicle: saline): 229 % of control | T/C (dose: 0.5 mg/kg/injection, schedule: Q01DX001 (ip), vehicle: other): 158 % of control | T/C (dose: 0.5 mg/kg/injection, schedule: Q01DX001 (ip), vehicle: saline): 172 % of control | T/C (dose: 0.5 mg/kg/injection, schedule: Q04DX003 (ip), vehicle: saline): 87 % of control

O=C([Se]c1[se]c(=[Se])[se]c1[Se]C(=O)c1ccccc1)c1ccccc1
T/C (dose: 7.5 mg/kg/injection, schedule: Q01DX005 (ip), vehicle: saline with Tween-80): 97 % of control | T/C (dose: 15.0 mg/kg/injection, schedule: Q01DX005 (ip), vehicle: saline with Tween-80): 105 % of control | T/C (dose: 30.0 mg/kg/injection, schedule: Q01DX005 (ip), vehicle: saline with Tween-80): 105 % of control | T/C (dose: 50.0 mg/kg/injection, schedule: Q01DX005 (ip), vehicle: saline with Tween-80): 88 % of control

CC1CN=C(c2ccc(NC(=O)Nc3ccc(C4=NCC(C)N4)cc3)cc2)N1 (centres undefined)
T/C (dose: 0.4 mg/kg/injection, schedule: Q01DX005 (ip), vehicle: saline with Tween-80): 106 % of control | T/C (dose: 0.78 mg/kg/injection, schedule: Q01DX005 (ip), vehicle: saline with Tween-80): 104 % of control | T/C (dose: 1.56 mg/kg/injection, schedule: Q01DX005 (ip), vehicle: saline with Tween-80): 117 % of control and 118 % of control | T/C (dose: 3.13 mg/kg/injection, schedule: Q01DX005 (ip), vehicle: saline with Tween-80): 117 % of control | T/C (dose: 6.25 mg/kg/injection, schedule: Q01DX005 (ip), vehicle: saline with Tween-80): 110 % of control

BrC[Si](CBr)(c1ccccc1)c1ccccc1
T/C (dose: 12.5 mg/kg/injection, schedule: Q01DX009 (ip), vehicle: saline): 106 % of control | T/C (dose: 25.0 mg/kg/injection, schedule: Q01DX009 (ip), vehicle: saline): 106 % of control | T/C [1]: 99 % of control and 92 % of control

CCOC(c1ccc(OC)cc1)c1cc(C(C)(C)C)cc(C(C)(C)C)c1O (centres undefined)
T/C (dose: 50.0 mg/kg/injection, schedule: Q01DX005 (ip), vehicle: distilled water + alcohol): 103 % of control | T/C (dose: 100.0 mg/kg/injection, schedule: Q01DX005 (ip), vehicle: distilled water + alcohol): 105 % of control | T/C (dose: 200.0 mg/kg/injection, schedule: Q01DX005 (ip), vehicle: distilled water + alcohol): 107 % of control

N#C/C(=C/c1cccs1)c1ccc(Cl)cc1
T/C (dose: 100.0 mg/kg/injection, schedule: Q04DX003 (ip), vehicle: Klucel (hydroxypropylcellulose) (HPC)): 109 % of control | T/C (dose: 200.0 mg/kg/injection, schedule: Q04DX003 (ip), vehicle: Klucel (hydroxypropylcellulose) (HPC)): 99 % of control

c1cc(-c2[nH]c3cc(C4=NCCN4)ccc3c2-c2cc3ccc(C4=NCCN4)cc3[nH]2)ccc1C1=NCCN1
T/C (dose: 3.12 mg/kg/injection, schedule: Q01DX005 (ip), vehicle: Klucel (hydroxypropylcellulose) (HPC)): 107 % of control | T/C (dose: 6.25 mg/kg/injection, schedule: Q01DX005 (ip), vehicle: Klucel (hydroxypropylcellulose) (HPC)): 96 % of control | T/C (dose: 12.5 mg/kg/injection, schedule: Q01DX005 (ip), vehicle: Klucel (hydroxypropylcellulose) (HPC)): 109 % of control

COCC1(C)CCCC2(C)C3=C(CC=C(OC)C3)CCC12 (centres undefined)
T/C [2]: 102 % of control | T/C [3]: 94 % of control | T/C [4]: 90 % of control

CC(=O)/C(=C\c1ccccc1F)C(=O)CCN(C)C
T/C (dose: 60.0 mg/kg/injection, schedule: Q01DX005 (ip), vehicle: saline): 109 % of control | T/C (dose: 120.0 mg/kg/injection, schedule: Q01DX005 (ip), vehicle: saline): 118 % of control

NC(=S)N/N=C/c1c(Br)n(-c2ccccc2)c2ccccc12
T/C [2]: 94 % of control | T/C [3]: 98 % of control | T/C [4]: 91 % of control

NCCN1CCc2ccccc2C1
T/C (dose: 6.25 mg/kg/injection, schedule: Q04DX003 (ip), vehicle: saline): 95 % of control | T/C (dose: 12.5 mg/kg/injection, schedule: Q04DX003 (ip), vehicle: saline): 100 % of control | T/C (dose: 25.0 mg/kg/injection, schedule: Q04DX003 (ip), vehicle: saline): 100 % of control

CC1(C)[C@H](O)CC[C@]2(C)[C@@H]1CC[C@]13C=C[C@](C)(C1)[C@H](O)C[C@H]32
T/C (dose: 1.88 mg/kg/injection, schedule: Q01DX005 (ip), vehicle: Klucel (hydroxypropylcellulose) (HPC)): 96 % of control | T/C (dose: 3.75 mg/kg/injection, schedule: Q01DX005 (ip), vehicle: Klucel (hydroxypropylcellulose) (HPC)): 94 % of control | T/C (dose: 7.5 mg/kg/injection, schedule: Q01DX005 (ip), vehicle: Klucel (hydroxypropylcellulose) (HPC)): 91 % of control | T/C (dose: 15.0 mg/kg/injection, schedule: Q01DX005 (ip), vehicle: Klucel (hydroxypropylcellulose) (HPC)): 95 % of control

COc1cccc(C(=O)CCN(C)C)c1
T/C [1]: 98 % of control and 106 % of control | T/C (dose: 100.0 mg/kg/injection, schedule: Q01DX009 (ip), vehicle: saline): 99 % of control and 105 % of control

OCCN1CCN(CCCN2c3cc(Cl)ccc3Sc3ccsc32)CC1
T/C (dose: 50.0 mg/kg/injection, schedule: Q01DX005 (ip), vehicle: Klucel (hydroxypropylcellulose) (HPC)): 97 % of control | T/C (dose: 100.0 mg/kg/injection, schedule: Q01DX005 (ip), vehicle: Klucel (hydroxypropylcellulose) (HPC)): 97 % of control

CSc1ccc2c(=O)c(C(=O)O)c[nH]c2c1
T/C (dose: 100.0 mg/kg/injection, schedule: Q04DX003 (ip), vehicle: saline): 108 % of control | T/C (dose: 200.0 mg/kg/injection, schedule: Q04DX003 (ip), vehicle: saline): 99 % of control | T/C (dose: 400.0 mg/kg/injection, schedule: Q04DX003 (ip), vehicle: saline): 107 % of control

Cc1cc(C)c(SSc2nnnn2C)c(C)c1
T/C [5]: 100 % of control | T/C [6]: 90 % of control

CC1([CH2][Hg][Cl])Cc2ccccc2O1 (centres undefined)
T/C (dose: 0.78 mg/kg/injection, schedule: Q01DX009 (ip), vehicle: saline with Tween-80): 91 % of control | T/C (dose: 1.56 mg/kg/injection, schedule: Q01DX009 (ip), vehicle: saline with Tween-80): 95 % of control | T/C (dose: 3.13 mg/kg/injection, schedule: Q01DX009 (ip), vehicle: saline with Tween-80): 86 % of control

O=[N+]([O-])c1ccc(CN2CCN(c3nccs3)CC2)cc1
T/C [5]: 101 % of control | T/C [6]: 105 % of control | T/C (dose: 200.0 mg/kg/injection, schedule: Q01DX009 (ip), vehicle: Klucel (hydroxypropylcellulose) (HPC)): 105 % of control
